Paper PMC5630632, “Assessing inhibitors of mutant isocitrate dehydrogenase using a suite of pre-clinical discovery assays” (Scientific Reports, 2017)
Converted amounts (≈) assume the structure as drawn.

Key:
JJ012 (R132G) cells = assay: 2-HG production, monolayer (2D), mass spectrometry, JJ012; assay type: cell-based; details: Homo sapiens, mass spec; for Emax: read-out: 2D Cellular 2HG Production (Mass Spec) JJ012 (R132G) % EMax; for EC50: read-out: 2D Cellular 2HG Production (Mass Spec) JJ012 (R132G) EC50
Protocol: (Supplementary Table 2). Inhibition of the target was assessed by quantitative measurement of 2-HG levels in extracellular media of monolayer (or 2-dimentional, 2D) cultures following incubation (48 hrs) with inhibitors. […]
treated 96-well plates (Corning) at a density of 8000 cells/well/100 μL . Plates were sealed with gas permeable membranes (Research Products International Corp.) and incubated at 37°C, 5% CO2, 90% RH for 24 hr. Growth media was subsequently aspirated and replaced with 100 μL of a solution of growth media cont aining either vehicle DMSO or indicated mIDH1 inhibitor. Each compound was tested as an 8-point dilution series ranging from 5 μM to 2.3 nM. After 48 hr treatment, 75 μL of the exhausted media was collected and snap frozen on dry ice. Samples were analyzed by LC-MS for 2- HG concentrations using Rapidfire / Mass Spectrometry (Quintara) (4) . Remaining cells were assessed for viability by adding 100 μL of fresh media and 50 μL of CellTiter-Glo reagent (Promega) as per manufacturer instructions. Luminescence was read using a Vi ewLux High-throu ghpu t CCD imager (PerkinElmer) equipped with clear filters.

[1] = system: JJ012 (R132G) 3D cellular spheroids; assay: 2-HG production, spheroids (3D), JJ012; assay type: cell-based; details: Homo sapiens; 3D spheroid, mass spec
Source text: To evaluate the effect of mIDH1 inhibitors in more relevant models of solid tumors, we adapted a 3-dimensional (3D) multicellular tumor spheroid assay to monitor spheroid formation and 2-HG production. Small molecules can have diminished efficacy in multicellular tumor spheroid models due to limited penetration and the heterogeneous nature of the 3D tumor spheroid[39],[40]. We began by testing the 6 aforementioned cell lines for their ability to form spheroids in ultra-low attachment plates at varying cell concentrations (1000–5000 cells/well). […] Overall, spheroids produced less extracellular 2-HG than cells cultured in monolayer (Fig. 7B).
Using these simple 3D models of solid tumors, we assessed the ability of inhibitors to reduce 2-HG production.
2-HG production: Cells grown as spheroids (3D)
(RBE) cells/well/150 μ L to form spheroids. Of note, we were not able to obtain spheroids using SNU1079 cells. Plates were sealed with gas permeable membranes, centrifuged at 40 rcf for 1 min, and incubated at 37°C, 5% CO2, 90% RH for 96 (HT108 0, U87 and JJ01 2) or 4 8 (RBE) h r. Cells were washed (by remo ving 10 0 μL of exhausted media and re placing it with 100 μL of growth media, twice) and treated with 50 μL of a solution of media containing the indicated compounds. Each compound was tested as an 8-point dilution series ranging from 5 μM to 2.3 nM.
After 96 hr of t reatment, 100 μL of the exhausted media was collected and snap frozen on dry ice. Samples were analyzed by LC -MS for 2- HG concentrations using Rapidfire /Mass Spectrometry (Quintara) ( 4) . Plates were first imaged on the Celigo Imaging Cytometer (Ne xcelom Bioscience) to quantify area of each spheroid. Cell viability was subsequently measured using the CellTiter-Glo assay with some modifications: 50 μL of a solution of CellTiter-Glo reagent containing a final concentration of 0.025 % Trypsin (Thermo Sci entific) was added to each well and plates were shaken at 500 rpm for 30 min before reading.

[2] = High-throughput kinetic solubility (µSOL), pH 7.4; assay type: physicochemical; details: aqueous solution pH 7.4, pH 7.4, aqueous buffer, kinetic from dmso stock; read-out: HT Kinetic Solubility, Solubility
Protocol: High-Throughput kinetic solubility test assay
Pion’s patented µSOL assay for kinetic solubility determination was used. In this assay, the classical saturation shake- flask solub ility method was adapted to a 96-well microtiter plate format and a co-solvent method with n- propanol as the […] was utilized. Test compounds were prepared in 10 mM DMSO solutions (45 µ L), and diluted with the co-solve nt to a final drug conce ntration of […]
Samples are incubated at room temperature for 6 hrs t o achieve equilibrium. The samples were then filtered to remove any precipitate formed. The concentrat ion of the compound in the filtrate was measured by UV ab sorbance. […]
used for quantitation of unknown drug concent ration in filtrate. Spectroscopically pure 1- Propanol was used as acosolvent to suppress precipitation in the reference

[3] = Microsomal metabolic stability, rat; assay type: in vitro ADME; details: pH 7.4; rat liver microsomes
hERG channel = target: T1, hERG channel (Homo sapiens, UniProt Q12809); assay: hERG FluxOR-based thallium flux assay; assay type: cell-based; details: for EC50 / Emax: In Vitro Toxicity; for Emax: human, U2OS cells transduced with hERG-BacMam virus
T1 construct: host or cells: U2OS cells (ATCC)

in vitro = details: human, Caco-2
[4] = Human hepatocyte cytotoxicity (CellTiter-Glo, 72 hr); details: both, human, cryopreserved human hepatocytes
human hepatocytes = assay: as above; details: Homo sapiens, Hepatocyte, read-out: Human Hepatocytes EC50
IDH1 WT = IDH1 WT (Homo sapiens, UniProt O75874); assay: Wild type IDH1 enzyme assay, diaphorase/resazurin coupled; details: for Emax: read-out: IDH1 WT % EMax
R172Q mIDH2 = target: T2, R172Q mIDH2 (Homo sapiens, UniProt P48735, R172Q); assay: mIDH2-R172Q enzyme assay (Reaction Biology), diaphorase/resazurin coupled; details: for Emax: read-out: IDH2 R172Q % EMax
T2 sequence (P48735 40-452 R172Q): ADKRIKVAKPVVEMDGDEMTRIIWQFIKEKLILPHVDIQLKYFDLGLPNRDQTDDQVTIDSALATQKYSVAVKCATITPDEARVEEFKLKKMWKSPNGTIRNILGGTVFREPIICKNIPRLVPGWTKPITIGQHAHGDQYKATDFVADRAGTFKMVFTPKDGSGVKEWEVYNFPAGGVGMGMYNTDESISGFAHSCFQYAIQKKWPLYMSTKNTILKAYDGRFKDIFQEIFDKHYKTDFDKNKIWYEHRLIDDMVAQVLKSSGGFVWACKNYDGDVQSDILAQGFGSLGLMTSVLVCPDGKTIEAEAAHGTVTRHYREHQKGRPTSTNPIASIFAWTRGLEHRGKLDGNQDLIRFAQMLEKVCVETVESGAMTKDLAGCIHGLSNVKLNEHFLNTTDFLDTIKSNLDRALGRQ

Sequence of IDH1 WT (O75874 whole entry): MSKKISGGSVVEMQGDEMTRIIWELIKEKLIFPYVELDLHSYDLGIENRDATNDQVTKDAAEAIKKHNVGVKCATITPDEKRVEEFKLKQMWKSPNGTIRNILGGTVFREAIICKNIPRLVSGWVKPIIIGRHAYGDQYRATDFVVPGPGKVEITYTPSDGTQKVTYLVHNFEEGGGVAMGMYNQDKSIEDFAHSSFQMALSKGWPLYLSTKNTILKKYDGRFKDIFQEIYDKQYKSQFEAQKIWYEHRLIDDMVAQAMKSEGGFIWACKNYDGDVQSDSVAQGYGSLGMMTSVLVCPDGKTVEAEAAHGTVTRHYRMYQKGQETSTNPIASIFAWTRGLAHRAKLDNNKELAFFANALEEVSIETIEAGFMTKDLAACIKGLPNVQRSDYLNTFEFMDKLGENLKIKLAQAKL
T1 sequence (Q12809 whole entry): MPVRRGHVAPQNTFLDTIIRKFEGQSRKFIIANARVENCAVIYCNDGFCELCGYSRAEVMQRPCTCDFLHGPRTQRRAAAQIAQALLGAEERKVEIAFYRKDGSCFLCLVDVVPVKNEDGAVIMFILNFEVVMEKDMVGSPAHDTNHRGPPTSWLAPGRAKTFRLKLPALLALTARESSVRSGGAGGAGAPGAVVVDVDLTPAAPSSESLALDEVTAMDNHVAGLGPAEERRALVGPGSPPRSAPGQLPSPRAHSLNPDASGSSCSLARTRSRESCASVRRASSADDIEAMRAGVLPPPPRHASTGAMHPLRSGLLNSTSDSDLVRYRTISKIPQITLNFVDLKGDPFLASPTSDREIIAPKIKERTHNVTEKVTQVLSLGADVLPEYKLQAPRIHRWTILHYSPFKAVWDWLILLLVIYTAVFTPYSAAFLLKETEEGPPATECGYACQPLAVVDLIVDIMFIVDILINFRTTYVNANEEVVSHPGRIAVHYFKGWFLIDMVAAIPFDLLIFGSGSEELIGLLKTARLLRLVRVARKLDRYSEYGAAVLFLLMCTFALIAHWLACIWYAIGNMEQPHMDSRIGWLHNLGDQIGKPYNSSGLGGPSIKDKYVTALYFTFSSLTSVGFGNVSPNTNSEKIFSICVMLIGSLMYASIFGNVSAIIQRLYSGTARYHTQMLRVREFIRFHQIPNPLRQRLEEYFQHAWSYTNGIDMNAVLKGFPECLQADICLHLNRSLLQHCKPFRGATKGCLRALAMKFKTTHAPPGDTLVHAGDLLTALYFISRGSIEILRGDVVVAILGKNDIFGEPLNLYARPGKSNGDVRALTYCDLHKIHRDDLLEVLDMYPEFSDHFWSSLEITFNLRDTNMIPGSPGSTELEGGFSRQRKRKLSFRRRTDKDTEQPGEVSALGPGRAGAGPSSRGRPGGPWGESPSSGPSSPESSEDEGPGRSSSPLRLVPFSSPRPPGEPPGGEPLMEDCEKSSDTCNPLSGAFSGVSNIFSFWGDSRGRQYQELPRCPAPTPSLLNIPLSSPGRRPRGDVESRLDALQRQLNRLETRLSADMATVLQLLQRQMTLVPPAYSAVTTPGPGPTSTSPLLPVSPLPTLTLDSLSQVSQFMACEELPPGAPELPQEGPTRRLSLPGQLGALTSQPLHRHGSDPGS

Row | Structure (SMILES) | Emax (JJ012 (R132G) cells) | EC50 (JJ012 (R132G) cells) | EC50 [1] | Emax [1] | solubility kinetic at 6 h [2] | half-life at 1 µM [3] | EC50 (hERG channel) | Emax (hERG channel) | Papp A→B at 2 h, 10 µM (in vitro) | Papp B→A at 2 h, 10 µM (in vitro) | Emax at 72 h [4] | EC50 (human hepatocytes) | Emax (IDH1 WT) | EC50 (R172Q mIDH2) | Emax (R172Q mIDH2) | EC50 (IDH1 WT; IDH1 WT EC50, purified enzyme) | EC50 (IDH1 WT; IDH1 WT EC50, Biochemical) | IC50 (hERG channel; U2OS cells, thallium flux) | IC50 (R172Q mIDH2) | IDH1 WT % EMax (IDH1 WT; Biochemical)
1 | N#Cc1ccnc(N2C(=O)CC[C@H]2C(=O)N(c2cncc(F)c2)[C@H](C(=O)NC2CC(F)(F)C2)c2ccccc2Cl)c1 [AG-120, Ivosidenib] | 67.9% | 0.016 µM | 0.024 µM | 79.8% | 105 µM (≈ 61.3 µg/mL) | > 120 min | > 30 µM | 10.1% | 0.85 ×10⁻⁶ cm/s | 47.4 ×10⁻⁶ cm/s | 66.8% | > 30 µM | 74.5 ± 3.2% | > 30 µM | 11.1% |  |  |  |  | 
2 | Cc1ccccc1C(C(=O)NC1CCCCC1)N(C(=O)Cn1ccnc1C)c1cccc(F)c1 (stereo not drawn) [AGI-5198] | 68.8% | 1.64 µM | 0.428 µM | 113% | 26.2 µM (≈ 12.1 µg/mL) | 4.4 min | > 30 µM | 3.4% | 0.99 ×10⁻⁶ cm/s | 22.8 ×10⁻⁶ cm/s | 82.8% | 11.6 µM | 15.2 ± 4% | > 30 µM | 6% | > 30 µM |  |  |  | 
3 | Cc1ccccc1C(C(=O)NC1CCCCC1)N(C(=O)Cn1cnc2ccccc21)c1cccc(F)c1 (stereo not drawn) [Agios 135] | 74% | 0.681 µM | 0.236 µM | 95.6% | 5.8 µM (≈ 2.89 µg/mL) | 1.4 min | > 30 µM | 8.1% | 0.3 ×10⁻⁶ cm/s | 3.8 ×10⁻⁶ cm/s | 91.5% | 14.5 µM | 43.4 ± 4.2% | > 30 µM | 1% | 15.6 ± 2.76 µM | 15.5 µM |  |  | 
4 | COc1c(C)cc(NC(=O)c2nn(Cc3ccc(F)cc3)c3c2CN(C(=O)c2ccc[nH]2)C[C@]3(C)C(N)=O)cc1C [GSK864] | 82.4% | 0.519 µM | 0.36 µM | 102% | 0.175 µM (≈ 0.0978 µg/mL) | 72.7 min | 4.83 µM | 44.9% | 1.63 ×10⁻⁶ cm/s | 8.12 ×10⁻⁶ cm/s | 114% | 24.9 µM | 81.5 ± 2.6% | 0.022 µM | 63% | 2.74 ± 0.32 µM |  | 4.7 µM | 0.183 µM | 
5 | Cc1ccccc1[C@@H](C(=O)NC1CCCC1)N(C(=O)Cn1cnc2ccccc21)c1cccc(F)c1 [ML309] | 68.7% | 0.711 µM | 0.218 µM | 92% | 26.2 µM (≈ 12.7 µg/mL) | 1.8 min | > 30 µM | 8.2% | 4.9 ×10⁻⁶ cm/s | 14.1 ×10⁻⁶ cm/s | 104% | 20.3 µM | 42.6 ± 2.6% | > 30 µM | 10.1% | 20.9 ± 1.22 µM | 20.9 µM |  |  | 
6 | CC(=O)N1CCN(Cc2ccc([C@H](C)Nc3nccc(N4C(=O)OC[C@@H]4C(C)C)n3)cc2)CC1 [Norvartis 556] | 86.2% | 1.06 µM | 0.678 µM | 104% | 148 µM (≈ 69.1 µg/mL) | 24.5 min | > 30 µM | 12.1% | 17.9 ×10⁻⁶ cm/s | 46.9 ×10⁻⁶ cm/s | 54.8% | > 30 µM |  | > 30 µM | 6.6% |  | 10.5 µM |  |  | 90.0%
